Here are results for 26 molecules from patent publication US11590139B2, “Substituted aminopurine compounds, compositions thereof, and methods of treatment therewith” (Signal Pharmaceuticals, LLC, priority 2014, dated 2023).

The test system of the first test is Lox-IMVI melanoma cell line. Description: Lox-IMVI anti-proliferative assay (growth inhibition, Cell Titer-Glo). In kind it is cell-based, human. Conditions: Homo sapiens; IC50 activity level in the cell-based Lox-IMVI anti-proliferative assay; read-out: Activity. The method, boiled down: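 RPMI/10% FBS; cmpd 0.5 nM–10 μM, 3-fold ×10, duplicate, 0.2% DMSO final; 72 h, 37 °C, 5% CO2. ATP-luminescence readout at t0 and 72 h. IC50 = 50% of DMSO control, 4-parameter logistic fit.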
In the case of `N#Cc1cc(F)c(Nc2nc3cnc(NC4CCC(F)(F)CC4)nc3n2[C@H]2CC[C@@H](C(N)=O)CC2)c(F)c1` [Example 396, (1s,4s)-4-(8-(4-cyano-2,6-difluorophenylamino)-2-(4,4-difluorocyclohexylamino)-9H-purin-9-yl)cyclohexanecarboxamide], the IC50 was in the range of 500 to 1000 nM.
For `NC(=O)[C@H]1CC[C@@H](n2c(Nc3c(F)cc(Cl)cc3F)nc3cnc(NC4CC(F)(F)C4)nc32)CC1` [Example 229, (1s,4s)-4-(8-(4-chloro-2,6-difluorophenylamino)-2-(3,3-difluorocyclobutylamino)-9H-purin-9-yl)cyclohexanecarboxamide], the IC50 is above 1000 nM.
Still for that read-out and setting: the result for `NC(=O)[C@H]1CC[C@@H](n2c(Nc3c(F)cc(F)cc3F)nc3cnc(N[C@H]4CCOC[C@H]4F)nc32)CC1` [Example 306, (1R,4s)-4-(2-((3S,4S)-3-fluorotetrahydro-2H-pyran-4-ylamino)-8-(2,4,6-trifluorophenylamino)-9H-purin-9-yl)cyclohexanecarboxamide] reads 250 to 500 nM.
As to `NC(=O)[C@H]1CC[C@@H](n2c(Nc3c(Cl)cc(F)cc3Cl)nc3cnc(N[C@@H]4COC[C@H]4O)nc32)CC1` [Example 315, (1S,4s)-4-(8-(2,6-dichloro-4-fluorophenylamino)-2-((3R,4S)-4-hydroxytetrahydrofuran-3-ylamino)-9H-purin-9-yl)cyclohexanecarboxamide], the IC50 was above 1000 nM.
Take `CC(C)(C)OC(=O)N1CC[C@H](Nc2ncc3nc(Nc4c(F)cc(F)cc4F)n([C@H]4CC[C@@H](C(N)=O)CC4)c3n2)[C@H](F)C1` [Example 127, (3R,4S)-tert-butyl 4-(9-((1s,4R)-4-carbamoylcyclohexyl)-8-(2,4,6-trifluorophenylamino)-9H-purin-2-ylamino)-3-fluoropiperidine-1-carboxylate]: the IC50 is above 1000 nM.
The same measure, in the same setting: the result for `NC(=O)[C@H]1CC[C@@H](n2c(Nc3c(F)cc(F)cc3F)nc3cnc(NC4COCC4O)nc32)CC1` (some centres unmarked) [Example 178, (1s,4s)-4-(2-(4-hydroxytetrahydrofuran-3-ylamino)-8-(2,4,6-trifluorophenylamino)-9H-purin-9-yl)cyclohexanecarboxamide] reads above 1000 nM.
With `NC(=O)[C@H]1CC[C@@H](n2c(Nc3ccc(Cl)c(F)c3F)nc3cnc(N[C@H]4COC[C@@H]4O)nc32)CC1` [Example 317, (1R,4s)-4-(8-(4-chloro-2,3-difluorophenylamino)-2-((3S,4R)-4-hydroxytetrahydrofuran-3-ylamino)-9H-purin-9-yl)cyclohexanecarboxamide], the IC50 fell in the range of 500 to 1000 nM.
Same read-out and setting: next, `NC(=O)[C@H]1CC[C@@H](n2c(Nc3c(F)cc(Cl)cc3F)nc3cnc(N[C@@H]4CCC[C@H](O)C4)nc32)CC1` [Example 352, (1S,4s)-4-(8-(4-chloro-2,6-difluorophenylamino)-2-((1R,3S)-3-hydroxycyclohexylamino)-9H-purin-9-yl)cyclohexanecarboxamide]: 500 to 1000 nM.
Still for that read-out and setting: the result for `NC(=O)[C@H]1CC[C@@H](n2c(Nc3c(F)cc(Cl)cc3F)nc3cnc(NC4CCS(=O)(=O)CC4)nc32)CC1` [Example 156, (1s,4s)-4-(8-((4-chloro-2,6-difluorophenyl)amino)-2-((1,1-dioxidotetrahydro-2H-thiopyran-4-yl)amino)-9H-purin-9-yl)cyclohexane-1-carboxamide] reads above 1000 nM; that for `NC(=O)[C@H]1CC[C@@H](n2c(Nc3c(Cl)cc(Cl)cc3Cl)nc3cnc(N[C@H]4CC[C@H](O)C4)nc32)CC1` [Example 330, (1R,4s)-4-(2-((1S,3S)-3-hydroxycyclopentylamino)-8-(2,4,6-trichlorophenylamino)-9H-purin-9-yl)cyclohexanecarboxamide], 500 to 1000 nM.
On the same count and under the same terms, next, `NC(=O)[C@H]1CC[C@@H](n2c(Nc3c(F)cc(Cl)cc3F)nc3cnc(N[C@H]4CCC[C@@H]4O)nc32)CC1` [Example 269, (1R,4s)-4-(8-(4-chloro-2,6-difluorophenylamino)-2-((1S,2S)-2-hydroxycyclopentylamino)-9H-purin-9-yl)cyclohexanecarboxamide]: above 1000 nM; `NC(=O)[C@H]1CC[C@@H](n2c(Nc3c(F)cccc3F)nc3cnc(NC4CC5(COC5)C4)nc32)CC1` [Example 173, (1s,4s)-4-(2-(2-oxaspiro[3.3]heptan-6-ylamino)-8-(2,6-difluorophenylamino)-9H-purin-9-yl)cyclohexanecarboxamide]: above 1000 nM.
Turning to `NC(=O)[C@H]1CC[C@@H](n2c(Nc3c(F)ccc(Cl)c3F)nc3cnc(N[C@H]4COC[C@@H]4O)nc32)CC1` [Example 318, (1R,4s)-4-(8-(3-chloro-2,6-difluorophenylamino)-2-((3S,4R)-4-hydroxytetrahydrofuran-3-ylamino)-9H-purin-9-yl)cyclohexanecarboxamide], the IC50 was above 1000 nM.

Staying with this test, now noted: Homo sapiens; Lox-IMVI anti-proliferative assay, IC50 activity level; read-out: Activity.
Take `NC(=O)[C@H]1CC[C@@H](n2c(Nc3ccc(Cl)c(F)c3F)nc3cnc(N[C@H]4CCC[C@H](O)C4)nc32)CC1` [Example 463, (1R,4s)-4-(8-(4-chloro-2,3-difluorophenylamino)-2-((1S,3S)-3-hydroxycyclohexylamino)-9H-purin-9-yl)cyclohexanecarboxamide]: the IC50 is above 1000 nM.
On the same count and under the same terms, the result for `NC(=O)[C@H]1CC[C@@H](n2c(Nc3c(F)cc(Cl)cc3Cl)nc3cnc(N[C@@H]4CCCC[C@H]4O)nc32)CC1` [Example 470, (1S,4s)-4-(8-(2,4-dichloro-6-fluorophenylamino)-2-((1R,2R)-2-hydroxycyclohexylamino)-9H-purin-9-yl)cyclohexanecarboxamide] reads above 1000 nM; that for `C[C@H]1COCC[C@@H]1Nc1ncc2nc(Nc3c(Cl)cc(C#N)cc3Cl)n([C@H]3CC[C@@H](C(N)=O)CC3)c2n1` [Example 496, (1R,4s)-4-(8-(2,6-dichloro-4-cyanophenylamino)-2-((3R,4S)-3-methyltetrahydro-2H-pyran-4-ylamino)-9H-purin-9-yl)cyclohexanecarboxamide], 250 to 500 nM; that for `C[C@@H]1COCC[C@@H]1Nc1ncc2nc(Nc3c(F)cc(Cl)cc3Cl)n([C@H]3CC[C@@H](C(N)=O)CC3)c2n1` [Example 506, (1R,4s)-4-(8-(2,4-dichloro-6-fluorophenylamino)-2-((3S,4S)-3-methyltetrahydro-2H-pyran-4-ylamino)-9H-purin-9-yl)cyclohexanecarboxamide], 250 to 500 nM.
Consider `CC(CN1CCOCC1)Nc1ncc2nc(Nc3c(Cl)cc(Cl)cc3Cl)n([C@H]3CC[C@@H](C(N)=O)CC3)c2n1` (some centres unmarked) [Example 531, (1s,4s)-4-(2-(1-morpholinopropan-2-ylamino)-8-(2,4,6-trichlorophenylamino)-9H-purin-9-yl)cyclohexanecarboxamide], for which the IC50 was above 1000 nM.

The same test, now with this note: Homo sapiens; Lox-IMVI melanoma cell line, anti-proliferative assay; read-out: Activity (IC50 activity level).
For `Cc1ccc(S(=O)(=O)N2CCC[C@@H](Nc3ncc4nc(Nc5c(F)cc(C#N)cc5Cl)n([C@H]5CC[C@@H](C(N)=O)CC5)c4n3)C2)cc1` [Example 795, (1S,4s)-4-(8-(2-chloro-4-cyano-6-fluorophenylamino)-2-((R)-1-tosylpiperidin-3-ylamino)-9H-purin-9-yl)cyclohexanecarboxamide], the IC50 was above 1000 nM.
As for `N#Cc1cc(F)c(Nc2nc3cnc(N[C@H]4CCOC[C@H]4F)nc3n2[C@H]2CC[C@@H](C(N)=O)CC2)c(Cl)c1` [Example 670, (1R,4s)-4-(8-(2-chloro-4-cyano-6-fluorophenylamino)-2-((3S,4S)-3-fluorotetrahydro-2H-pyran-4-ylamino)-9H-purin-9-yl)cyclohexanecarboxamide], the IC50 was below 250 nM.
For the molecule `N#Cc1cc(F)c(Nc2nc3cnc(N[C@@H]4CCCN(Cc5ccccc5)C4)nc3n2[C@H]2CC[C@@H](C(N)=O)CC2)c(Cl)c1` [Example 777, (1S,4s)-4-(2-((R)-1-benzylpiperidin-3-ylamino)-8-(2-chloro-4-cyano-6-fluorophenylamino)-9H-purin-9-yl)cyclohexanecarboxamide], the IC50 is above 1000 nM.
The same measure, in the same setting: next, `C[C@]1(C(N)=O)CC[C@@H](n2c(Nc3c(F)cc(Cl)cc3F)nc3cnc(N[C@H]4CCC[C@H](O)C4)nc32)CC1` [Example 614, (1R,4s)-4-(8-(4-chloro-2,6-difluorophenylamino)-2-((1S,3S)-3-hydroxycyclohexylamino)-9H-purin-9-yl)-1-methylcyclohexanecarboxamide]: below 250 nM; `C[C@]1(C(N)=O)CC[C@@H](n2c(Nc3c(F)cc(F)cc3Cl)nc3cnc(NC4CCC4)nc32)CC1` [Example 604, (1s,4s)-4-(8-(2-chloro-4,6-difluorophenylamino)-2-(cyclobutylamino)-9H-purin-9-yl)-1-methylcyclohexanecarboxamide]: below 250 nM; `N#Cc1cc(Cl)c(Nc2nc3cnc(N[C@H]4CCC[C@@H](O)C4)nc3n2[C@H]2CC[C@@H](C(N)=O)CC2)c(Cl)c1` [Example 686, (1R,4s)-4-(8-(2,6-dichloro-4-cyanophenylamino)-2-((1S,3R)-3-hydroxycyclohexylamino)-9H-purin-9-yl)cyclohexanecarboxamide]: 500 to 1000 nM.
`NC(=O)[C@H]1CC[C@@H](n2c(Nc3c(Cl)cc(F)cc3Cl)nc3cnc(N[C@@H]4CCCN(Cc5ccccc5)C4)nc32)CC1` [Example 759, (1S,4s)-4-(2-((R)-1-benzylpiperidin-3-ylamino)-8-(2,6-dichloro-4-fluorophenylamino)-9H-purin-9-yl)cyclohexanecarboxamide]: the IC50 was above 1000 nM.

Still in this test, the particulars now being: Lox-IMVI melanoma cell line, anti-proliferative assay; read-out: Activity (IC50 activity level).
For the molecule `C[C@]1(C(N)=O)CC[C@@H](n2c(Nc3c(F)cc(C#N)cc3F)nc3cnc(N[C@@H]4CCC[C@@H](O)C4)nc32)CC1` [Example 642, (1S,4s)-4-(8-(4-cyano-2,6-difluorophenylamino)-2-((1R,3R)-3-hydroxycyclohexylamino)-9H-purin-9-yl)-1-methylcyclohexanecarboxamide], the IC50 was above 1000 nM.
